# Experimental data as given in PMC7158045 (BMC Plant Biology, 2020).
# What was measured:
# Assay in all cases: biochemical
# [1] = biological target: T1, ZmDRIK1 (DROUGHT RESPONSIVE INACTIVE KINASE 1), kinase domain (Zea mays, UniProt C0P4K9); details: read-out: dTm B, sheet ZmDRIK1-R187-S514;; DSF, Boltzmann fit, 0.1% DMSO
# T1 construct: gene ZEAMMB73_Zm00001d028770; ZmDRIK1-KD R187-S514 (kinase domain)
# T1 sequence (C0P4K9 187-514): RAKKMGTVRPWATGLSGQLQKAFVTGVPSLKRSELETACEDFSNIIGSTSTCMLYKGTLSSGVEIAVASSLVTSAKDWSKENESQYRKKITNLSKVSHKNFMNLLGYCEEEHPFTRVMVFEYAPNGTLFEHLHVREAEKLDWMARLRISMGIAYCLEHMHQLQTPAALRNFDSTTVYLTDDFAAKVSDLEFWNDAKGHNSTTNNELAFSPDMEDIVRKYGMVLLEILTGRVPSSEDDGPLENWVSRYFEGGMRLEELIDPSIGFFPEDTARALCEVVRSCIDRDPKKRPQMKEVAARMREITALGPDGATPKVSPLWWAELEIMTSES
# ZmDRIK1-R187-P492 = biological target: T2, ZmDRIK1-R187-P492 (Zea mays, UniProt C0P4K9); details: read-out: dTm B, DSF, Boltzmann fit, 0.1% DMSO
# T2 construct: kinase domain, R187-P492
# T2 sequence (C0P4K9 1-514): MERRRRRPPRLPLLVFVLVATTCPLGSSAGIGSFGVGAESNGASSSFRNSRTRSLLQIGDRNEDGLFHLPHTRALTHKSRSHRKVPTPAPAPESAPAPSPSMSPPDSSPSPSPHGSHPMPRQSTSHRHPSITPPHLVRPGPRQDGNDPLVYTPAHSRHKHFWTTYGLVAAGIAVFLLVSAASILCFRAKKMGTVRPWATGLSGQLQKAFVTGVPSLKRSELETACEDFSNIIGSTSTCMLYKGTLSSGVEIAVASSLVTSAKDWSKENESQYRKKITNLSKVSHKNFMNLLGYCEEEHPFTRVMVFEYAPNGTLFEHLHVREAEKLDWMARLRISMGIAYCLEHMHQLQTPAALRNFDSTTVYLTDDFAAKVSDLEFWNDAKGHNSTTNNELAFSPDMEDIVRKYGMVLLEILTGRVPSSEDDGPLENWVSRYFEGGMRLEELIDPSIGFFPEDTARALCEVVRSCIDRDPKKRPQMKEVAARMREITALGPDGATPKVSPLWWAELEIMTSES
# ZmDRIK1-K217-P492 = biological target: T3, ZmDRIK1-K217-P492 (Zea mays, UniProt C0P4K9); details: read-out: dTm B, sheet ZmDRIK1-K217-P492;; DSF, Boltzmann fit, 0.1% DMSO
# T3 construct: kinase domain, K217-P492
# T3 sequence (C0P4K9 1-514): T2 sequence (C0P4K9 1-514)
# ZmDRIK1-K217-S514 = biological target: T4, ZmDRIK1-K217-S514 (Zea mays, UniProt C0P4K9); details: read-out: dTm B, sheet ZmDRIK1-K217-S514;; DSF, Boltzmann fit, 0.1% DMSO
# T4 construct: kinase domain, K217-S514
# T4 sequence (C0P4K9 1-514): T2 sequence (C0P4K9 1-514)
Compound,ΔTm at 10 µM [1] [°C],ΔTm at 10 µM (ZmDRIK1-R187-P492) [°C],ΔTm at 10 µM (ZmDRIK1-K217-P492) [°C],ΔTm at 10 µM (ZmDRIK1-K217-S514) [°C]
CC1=C(C(=O)Nc2cc3cn[nH]c3cc2F)C(c2ccc(C(F)(F)F)cc2)CC(=O)N1 (stereo not shown) [GSK429286A],-0.758,-0.447,-1.02,-0.373
CNC(=O)c1c(F)cccc1Nc1nc(Nc2cc3c(ccn3C(=O)CN(C)C)cc2OC)nc2[nH]ccc12 [GSK1838705A],-0.961,-0.292,-0.578,-0.398
COc1ncc(-c2ccc3nccc(-c4ccnnc4)c3c2)cc1NS(=O)(=O)c1ccc(F)cc1F [GSK2126458 (GSK458)],-0.808,-0.322,-1.03,-0.505
O=C1Nc2ccc(I)cc2/C1=C/c1cc(Br)c(O)c(Br)c1 [GW5074],-0.178,-0.306,-0.0461,0.341
COc1ccc2c(c1)c(C1=C(c3c[nH]c4ccccc34)C(=O)NC1=O)cn2CCCN(C)C [Go 6983],-0.633,-0.26,-1.22,-0.364
CN1CCN(C2CCN(C(=O)Nc3cc(Oc4ccc(NC(=O)C5(C(=O)Nc6ccc(F)cc6)CC5)c(F)c4)ccn3)CC2)CC1 [Golvatinib (E7050)],-0.382,-0.232,-0.473,-0.278
O=S(=O)(NCCNC/C=C/c1ccc(Br)cc1)c1cccc2cnccc12 [H 89 2HCl],-0.703,-0.178,-0.68,-0.188
Cc1cc(Nc2ncnc3ccc(-c4ccc(CNCCS(C)(=O)=O)o4)cc23)ccc1Oc1ccn2ncnc2c1 [HER2-Inhibitor-1],-0.782,0.197,-0.972,0.102
CCOC(=O)c1cnc2ccc(-c3cncc(NS(=O)(=O)c4ccccc4)c3)cn12 [HS-173],-0.566,-0.247,-0.326,-0.361
CCS(=O)(=O)Nc1ccc2c(c1)/C(=C(/Nc1ccc(CN3CCCCC3)cc1)c1ccccc1)C(=O)N2 [Hesperadin],-0.801,-0.086,0.108,-0.308
C=CCc1ccc(O)c(-c2ccc(O)c(CC=C)c2)c1 [Honokiol],-0.751,-0.457,-1.49,-0.593
O=C(c1ccc(Nc2nccc(-c3cc4ccccc4s3)n2)cc1)N1CCC(N2CCCC2)CC1 [IKK-16 (IKK Inhibitor VII)],-0.0967,0.0892,-0.786,0.121
Cc1[nH]c2ccccc2c1C1=C(NCCc2ccc(F)cc2)C(=O)N(C)C1=O [IM-12],-0.881,-0.527,-1.43,-0.628
O=C(Nc1cc(C(F)(F)F)cc(C(F)(F)F)c1)c1cc(Cl)ccc1O [IMD 0354],-0.239,0.639,0.526,1.2
CC(C)n1nc(-c2ccc3oc(N)nc3c2)c2c(N)ncnc21 [INK 128 (MLN0128)],-0.628,-0.315,-0.659,-0.433
C[C@H](Nc1ncnc2nc[nH]c12)c1cc2cccc(Cl)c2c(=O)n1-c1ccccc1 [IPI-145 (INK1197)],-1.16,-0.495,-0.86,-0.374
C=CC(=O)N1CCC[C@@H](n2nc(-c3ccc(Oc4ccccc4)cc3)c3c(N)ncnc32)C1 [Ibrutinib (PCI-32765)],-0.597,-0.476,-1.14,-0.359
C#Cc1cccc(Nc2ncnc3cc4c(cc23)OCCOCCOCCO4)c1 [Icotinib],-0.618,-0.388,-1.1,-0.34
O=C1Nc2ccccc2/C1=C1/Nc2ccccc2C1=O [Indirubin],-0.784,-0.337,-1.26,-0.386
N#Cc1c(NC(=O)c2cccc3ccccc23)sc2c1CCCC2 [JNK Inhibitor IX],-1.05,-0.365,-1.09,-0.601
Cc1cc(NC(=O)c2cccc(NC(=O)/C=C/CN(C)C)c2)ccc1Nc1nccc(-c2cccnc2)n1 [JNK-IN-8],-0.726,-0.326,-1.16,-0.306
C=CC(=O)N1CCN(c2nc(=O)n(-c3c(C)ccnc3C(C)C)c3nc(-c4c(O)cccc4F)c(F)cc23)[C@@H](C)C1 [K-Ras(G12C) inhibitor 9],-0.658,-0.298,-0.935,-0.321
COc1ccc(S(=O)(=O)N(CCO)c2ccccc2CN(C)C/C=C/c2ccc(Cl)cc2)cc1 [KN-93 Phosphate],-0.375,-1.06,-4.4,-0.811
CCCNC(=O)Nc1ccc(Oc2ncnc3cc(OC)c(OC)cc23)cc1Cl [KRN 633],-1.02,-0.332,-0.52,-0.102
O=c1cc(-c2cccc3c2Sc2ccccc2S3)oc(N2CCOCC2)c1 [KU-55933 (ATM Kinase Inhibitor)],-0.601,-0.282,-1.32,-0.342

# More lines, now with the values ahead:
ΔTm at 10 µM [1] [°C],ΔTm at 10 µM (ZmDRIK1-R187-P492) [°C],ΔTm at 10 µM (ZmDRIK1-K217-P492) [°C],ΔTm at 10 µM (ZmDRIK1-K217-S514) [°C],Compound
-1.05,-0.19,-0.796,-0.15,C[C@@H](Oc1cc(-n2cnc3ccc(CN4CCN(C)CC4)cc32)sc1C(N)=O)c1ccccc1C(F)(F)F [GSK461364]
-0.785,-0.485,-1.03,-0.353,O=C(O)c1ccc(-c2c[nH]c3ncc(-c4ccccc4)cc23)cc1C1CCCC1 [GSK650394]
-0.678,-0.153,-1.08,-0.204,CCn1c(-c2nonc2N)nc2c(C#CC(C)(C)O)ncc(OC[C@H]3CCCNC3)c21 [GSK690693]
-0.862,-0.283,-0.796,-0.279,O=C1NC(=O)/C(=C/c2ccc3nccc(-c4ccncc4)c3c2)S1 [GSK1059615]
-0.8,-0.4,-0.636,-0.431,CNc1nc(-c2ccc3c(N)n[nH]c3c2)cc(N2C[C@@H](C(=O)NC3CCCCC3)CC[C@H]2C)n1 [GSK2334470]
-0.589,-0.37,-0.98,-0.699,Cc1c(Cn2c(C)nc3c(C(=O)O)cc(N4CCOCC4)cc32)cccc1C(F)(F)F [GSK2636771]
-1.61,-0.305,-4.57,0.363,Cc1ccc(C(=O)Nc2ccc(CN3CCN(C)CC3)c(C(F)(F)F)c2)cc1C#Cc1cnc2[nH]ncc2c1 [GZD824]
-0.877,-0.238,-0.694,-0.242,COc1ccc(S(=O)(=O)N(C(C)=O)c2ccccc2/C=C/c2cc[n+]([O-])cc2)cc1 [HMN-214]
-20.6,-15.4,-15.1,-15,Oc1ccc2ccccc2c1SSc1c(O)ccc2ccccc12 [IPA-3]
-0.794,-0.0807,-0.924,-0.319,Nc1nc(Nc2ccc(S(N)(=O)=O)cc2)nn1C(=O)c1c(F)cccc1F [JNJ-7706621]
-0.758,-0.343,-1,-0.499,Cn1cc(-c2ccc3nnc(C(F)(F)c4ccc5ncccc5c4)n3n2)cn1 [JNJ-38877605]
-1.39,-1.15,-1.79,-0.945,CN([C@@H](Cc1ccc(OS(=O)(=O)c2cccc3cnccc23)cc1)C(=O)N1CCN(c2ccccc2)CC1)S(=O)(=O)c1cccc2cnccc12 [KN-62]
